Some results are limits rather than exact numbers.

We go through 31 compounds from patent US5624906A, “Oral hygiene compositions comprising heteroatom containing alkyl aldonamide compounds” (Lever Brothers Company, Division of Conopco, Inc., priority 1994, dated 1997).

The nature of data set [1]: Krafft point. In kind it is physicochemical. The conditions noted are these: for Krafft Point (0.1%): 0.1% in water; for Krafft Point (1.0%): 1.0% in water. As to the method:
The temperature at and above which surfactants begin to form micelles instead of precipitates is referred to as the Krafft point (Tk) and at this temperature the solubility of a surfactant becomes equal to its CMC (numerical value at which micelles are formed).
The Krafft point was measured by preparing 650 ml of a 0.1% or 1.0% dispersion of aldonamide in water by weight. If the surfactant was soluble at room temperature, the solution was slowly cooled to 0° C. […] (less than zero). If it precipitated out of solution, the temperature at which precipitation occurs was taken as the Krafft point.
If the surfactant was insoluble at room temperature, the dispersion was slowly heated until the solution became homogeneous. It was then slowly cooled until precipitation occurred. The temperature at which the surfactant precipitates out of solution upon cooling was taken as the Krafft point.

A short description of data set [2]: Ross-Miles foam height (Examples 81-84). In kind it is physicochemical. The conditions noted are these: for Foam Height Initial / Foam Height Final: 0.1% aldonamide, 40° C. (or 5-10° C. above Krafft point), 0 ppm hardness; for Foam Height Final: after 10 minutes; for Solubility: 0.1% in water. On the procedure:
In the Ross-Miles method, 200 mL of a surfactant solution contained in a pipette of specified dimensions with a 2.9-mm-i.d. orifice is allowed to fall 90 cm onto 50 mL of the same solution contained in a cylindrical vessel maintained at a given temperature by means of a water jacket. The height of the foam produced in the cylindrical vessel is read immediately after all the solution has run out of the pipette and then again after a given amount of time.
Using this method, the foam production (initial foam height in mm) and foam stability (final foam height after 10 minutes in mm) were measured at 0.1% aldonamide concentration, 40° C. and 0 ppm (parts per million) hardness.

With `CCCCCCCCCCCCOC(=O)CNC(=O)[C@H](O)[C@@H](O)[C@H](O)[C@H](O)CO` [N-D-Gluconyl C12 Glycinate, N-D-gluconyl dodecyl glycinate], in data set [1], the “Krafft Point (0.1%)” value came out at 63 °C.
Still for that read-out and setting: for `CCCCCCCCCCCCOC(=O)C(C)NC(=O)[C@H](O)[C@@H](O)[C@H](O)[C@H](O)CO` (mixture of isomers) [N-D-Gluconyl C12 DL-Alaninate, N-D-Gluconyl Dodecyl DL-Alaninate] the value was 53 °C.
Take `CCCCCCCNC(=O)[C@H](O)[C@@H](O)[C@H](O)[C@H](O)CO` [C7 D-Gluconamide]: in data set [2], the “Foam Height Initial” value worked out at 0 mm and the “Foam Height Final” value is 0 mm. Moreover, in data set [1], the “Krafft Point (0.1%)” value was below 0 °C.
On to `CCCCCCCCCCCCCCOCCCNC(=O)[C@H](O)[C@@H](O)[C@H](O[C@@H]1O[C@H](CO)[C@H](O)[C@H](O)[C@H]1O)[C@H](O)CO` [C14 Oxypropyl D-Lactobionamide, tetradecyloxypropyl D-lactobionamide], for which the “Krafft Point (1.0%)” value in data set [1] was below 0 °C.
As to `CCCCCCCCCCCCNC(=O)[C@H](O)[C@H](O)[C@@H](O)[C@@H](O)[C@H](O)CO` [C12 D-Glycero-L-Mannoheptonamide], the “Solubility” value in data set [2] is “Insoluble”. The “Krafft Point (0.1%)” value in data set [1] was above 100 °C.
Consider `CCCCCCCCCCCCCCOCCCNC(=O)[C@H](O)[C@@H](O)[C@H](O)[C@H](O)CO` [C14 Oxypropyl D-Gluconamide], for which the “Krafft Point (0.1%)” value in data set [1] was found to be 53 °C.
Consider `CCCCCCCCCCCCCNC(=O)[C@H](O)[C@@H](O)[C@H](O[C@@H]1O[C@H](CO)[C@H](O)[C@H](O)[C@H]1O)[C@H](O)CO` [C13 D-Lactobionamide], for which the “Foam Height Final” value in data set [2] is given as 78 mm. In data set [1], the “Krafft Point (1.0%)” value was 70 °C.
The like results for `CCCCCCCCCCCCNC(=O)[C@H](O)[C@@H](O)[C@H](O[C@@H]1O[C@H](CO)[C@H](O)[C@H](O)[C@H]1O)[C@H](O)CO` [C12 D-Lactobionamide] were, in that order, 20 mm and 38 °C.
With `CCCCCCCCCCCCCCCCCCNC(=O)[C@H](O)[C@@H](O)[C@H](O)[C@H](O)CO` [C18 D-Gluconamide], in data set [2], the “Solubility” value is on record as “Insoluble”. In data set [1], the “Krafft Point (0.1%)” value is above 100 °C.
Take “dodecyl to pentadecyloxypropyl D-gluconamide [C12 -C15 Oxypropyl D-Gluconamide]”: in data set [2], the “Foam Height Initial” value is reported as 200 mm and the “Foam Height Final” value came out at 110 mm. Besides, the “Krafft Point (0.1%)” value in data set [1] amounted to 58 °C.
For the compound `CCCCCCCCCCCCOCCCNC(=O)[C@H](O)[C@@H](O)[C@H](O[C@H]1O[C@H](CO)[C@@H](O)[C@H](O)[C@H]1O)[C@H](O)CO` [C12 Oxypropyl D-Maltobionamide, dodecyloxypropyl D-maltobionamide], in data set [1], the “Krafft Point (1.0%)” value is below 0 °C.
In the case of “dodecyl to pentadecyloxypropyl D-lactobionamide [C12 -C15 Oxypropyl D-Lactobionamide]”, in data set [2], the “Foam Height Initial” value is given as 166 mm and the “Foam Height Final” value came out at 155 mm. Moreover, the “Krafft Point (1.0%)” value in data set [1] is below 0 °C.
On to `CCCCCCCCCCCNC(=O)[C@H](O)[C@@H](O)[C@H](O)[C@H](O)CO` [C11 D-Gluconamide], for which the “Krafft Point (0.1%)” value in data set [1] is 87 °C.
With `CCCCCCCC/C=C\CCCCCCCCNCCCNC(=O)[C@H](O)[C@@H](O)[C@H](O[C@@H]1O[C@H](CO)[C@H](O)[C@H](O)[C@H]1O)[C@H](O)CO` [Oleylaminopropyl D-Lactobionamide, oleylaminopropyl D-lactobionamide], the “Krafft Point (1.0%)” value in data set [1] was below 0 °C.
As for `CCCCCCCCCCCCOCCCNC(=O)[C@H](O)[C@H](O)[C@@H](O)[C@H](O)[C@H](O)CO` [C12 Oxypropyl D-Glucoheptonamide], in data set [2], the “Foam Height Final” value is listed as 80 mm. The “Krafft Point (0.1%)” value in data set [1] amounted to 73 °C.
For the compound “octyl/decyloxypropyl D-ribonamide [C8 /C10 Oxypropyl D-Ribonamide]”, in data set [2], the “Foam Height Initial” value turned out to be 217 mm and the “Foam Height Final” value is recorded as 200 mm. Moreover, in data set [1], the “Krafft Point (0.1%)” value was found to be 10 °C.
“dodecyl to pentadecyloxypropylaminopropyl D-gluconamide”: in data set [2], the “Foam Height Initial” value was 180 mm. In addition, the “Krafft Point (0.1%)” value in data set [1] was below 0 °C.
As for soyaaminopropyl D-gluconamide, the “Krafft Point (0.1%)” value in data set [1] was below 18 °C.
The same measure, in the same setting: for `CCCCCCCCCCCCNC(=O)C(O)C(O)C(O)C(O)C(O)C(O)CO` [C12 D-Glucooctonamide] the value was below 86 °C.
Consider `CCCCCCCCCCCCCCCNC(=O)[C@H](O)[C@@H](O)[C@H](O[C@@H]1O[C@H](CO)[C@H](O)[C@H](O)[C@H]1O)[C@H](O)CO` [C15 D-Lactobionamide], for which the “Krafft Point (1.0%)” value in data set [1] was 84 °C.
For the compound `CCCCCCCCCCCCNC(=O)[C@H](O)[C@@H](O)[C@@H](O)[C@H](O)CO` [C12 D-Galactonamide], the “Solubility” value in data set [2] is given as “Insoluble”. Also, the “Krafft Point (0.1%)” value in data set [1] was above 100 °C.
For `CCCCCCCCCCCCOCCOCCOC(=O)CNC(=O)[C@H](O)[C@@H](O)[C@H](O)[C@H](O)CO` [N-D-Gluconyl C12 Di(oxyethyl) Glycinate, N-D-Gluconyl Dodecyldi(oxyethyl) Glycinate], the “Krafft Point (0.1%)” value in data set [1] was below 0 °C.
Regarding `CCCCCCCCCCCNC(=O)[C@H](O)[C@@H](O)[C@H](O[C@@H]1O[C@H](CO)[C@H](O)[C@H](O)[C@H]1O)[C@H](O)CO` [C11 D-Lactobionamide], in data set [2], the “Foam Height Initial” value was 0 mm and the “Foam Height Final” value came out at 0 mm. Also, the “Krafft Point (1.0%)” value in data set [1] amounted to 61 °C.
`CCCCC(CC)COCCCNC(=O)[C@H](O)[C@@H](O)[C@H](O)[C@H](O)CO` (stereo partly drawn) [Ethylhexyloxypropyl D-Gluconamide]: in data set [2], the “Foam Height Initial” value worked out at 0 mm and the “Foam Height Final” value came out at 0 mm. The “Krafft Point (0.1%)” value in data set [1] is below 0 °C.
On to `CCCCCCCCCCCCOC(=O)CCNC(=O)[C@H](O)[C@@H](O)[C@H](O[C@@H]1O[C@H](CO)[C@H](O)[C@H](O)[C@H]1O)[C@H](O)CO` [D-Lactobionyl C12 β-Alaninate, N-D-lactobionyl dodecyl β-alaninate], for which the “Krafft Point (1.0%)” value in data set [1] is below 0 °C.
On the same count and under the same terms, for `CCCCCCCCCCCCCCCCCCNC(=O)[C@H](O)[C@@H](O)[C@H](O[C@@H]1O[C@H](CO)[C@H](O)[C@H](O)[C@H]1O)[C@H](O)CO` [C18 D-Lactobionamide] the value was 82 °C.
In the case of `CCCCCCCCCCCCNC(=O)[C@H](O)[C@H](O)[C@@H](O)[C@H](O)[C@H](O)CO` [C12 D-Glucoheptonamide], the “Krafft Point (0.1%)” value in data set [1] was 91 °C.
Still for that read-out and setting: for `CCCCCCCCCCCCNC(=O)[C@H](O)[C@H](O)[C@H](O)CO` [C12 Ribonamide, dodecyl D-ribonamide] the value was 54 °C; for `CCCCCCCCCCCC(=O)OCCNC(=O)[C@H](O)[C@@H](O)[C@H](O)[C@H](O)CO` [N-D-Gluconyl C12 Ester of Ethanolamine, N-D-gluconyl dodecyl ester of ethanolamine], 63 °C; for `CCCCCCCCCCCCNC(=O)[C@@H](O)[C@H](O)[C@@H](O)[C@@H](O)CO` [C12 L-Gluconamide], 91 °C.
As to `CCCCCCCCCCCCOC(=O)CNC(=O)[C@H](O)[C@@H](O)[C@H](O[C@@H]1O[C@H](CO)[C@H](O)[C@H](O)[C@H]1O)[C@H](O)CO` [D-Lactobionyl C12 Glycinate, N-D-lactobionyl dodecyl glycinate], in data set [1], the “Krafft Point (1.0%)” value was below 0 °C.
